Data published in ChEMBL document CHEMBL3046260, “Synthesis of benzo[b][1,4]oxazin-3(4H)-ones via smiles rearrangement for antimicrobial activity” (2011).
In brackets after ≈: the same amount, converted by molar mass. Activity calls are given as the source filed them. The rule behind the calls is not given here.

Experiments:
[1] = system: Staphylococcus aureus; assay: Antimicrobial activity against Staphylococcus aureus ATCC 25923 after 24 hr by two-fold serial dilution method; assay type: functional; conditions: ATCC 25923, 24 h
[2] = system: Bacillus spizizenii; assay: Antimicrobial activity against Bacillus subtilis subsp. spizizenii ATCC 6633 after 24 hr by two-fold serial dilution method; assay type: functional; conditions: ATCC 6633, 24 h
[3] = system: Staphylococcus aureus; assay: Microbiostatic activity against Staphylococcus aureus ATCC 25923 after 24 hr
[4] = system: Proteus vulgaris; assay: Antimicrobial activity against Proteus vulgaris ATCC 6896 after 24 hr by two-fold serial dilution method; assay type: functional; conditions: ATCC 6896, 24 h
[5] = system: Candida albicans; assay: Antimicrobial activity against Candida albicans ATCC 76615 after 48 hr by two-fold serial dilution method; assay type: functional; conditions: ATCC 76615, 48 h
[6] = system: Aspergillus flavus; assay: Antimicrobial activity against Aspergillus flavus ATCC 10124 after 48 hr by two-foldserial dilution method; assay type: functional; conditions: ATCC 10124, 48 h
[7] = system: Escherichia coli; assay: Antimicrobial activity against Escherichia coli ATCC 25922 after 24 hr by two-fold serial dilution method; assay type: functional; conditions: ATCC 25922, 24 h
[8] = system: Aspergillus flavus; assay: Microbiostatic activity against Aspergillus flavus ATCC 10124; assay type: functional, organism-based
[9] = system: Candida albicans; assay: Microbiostatic activity against Candida albicans ATCC 76615; assay type: functional, organism-based
[10] = system: Pseudomonas aeruginosa; assay: Microbiostatic activity against Pseudomonas aeruginosa ATCC 27853 after 24 hr
[11] = system: Escherichia coli; assay: Microbiostatic activity against Escherichia coli ATCC 25922 after […]; assay type: functional, organism-based
[12] = system: Proteus vulgaris; assay: Microbiostatic activity against Proteus vulgaris ATCC 6896 after 24 hr
[13] = system: Bacillus spizizenii; assay: Microbiostatic activity against Bacillus subtilis subsp. spizizenii ATCC 6633 after 24 hr
[14] = system: Pseudomonas aeruginosa; assay: Antimicrobial activity against Pseudomonas aeruginosa ATCC 27853 after 24 hr by two-fold serial dilution method; assay type: functional; conditions: ATCC 27853, 24 h

Row | Structure (SMILES) | MIC [1] [µg/mL] | MIC [2] [µg/mL] | Activity [3] | MIC [4] [µg/mL] | MIC [5] [µg/mL] | MIC [6] [µg/mL] | MIC [7] [µg/mL] | Activity [8] | Activity [9] | Activity [10] | Activity [11] | Activity [12] | Activity [13] | MIC [14] [µg/mL]
1 | O=C1COc2cc(Cl)ccc2N1Cc1ccccc1 | 64 (≈ 234 µM) | 32 (≈ 117 µM) | Active | 64 (≈ 234 µM) | 128 (≈ 468 µM) | 128 (≈ 468 µM) | 64 (≈ 234 µM) | Active | Active | Active | Active | Active | Active | 16 (≈ 58.5 µM)
2 | O=C1COc2cc(Br)ccc2N1C1CCCCC1 | 32 (≈ 103 µM) | 32 (≈ 103 µM) | Active | 32 (≈ 103 µM) | 256 (≈ 825 µM) | – | 16 (≈ 51.6 µM) | Active | Active | Active | Active | Active | Active | 16 (≈ 51.6 µM)
3 | O=C1COc2cc(F)ccc2N1Cc1ccccc1 | 64 (≈ 249 µM) | 32 (≈ 124 µM) | Active | 32 (≈ 124 µM) | 256 (≈ 995 µM) | 128 (≈ 498 µM) | 16 (≈ 62.2 µM) | Active | Active | Active | Active | Active | Active | 16 (≈ 62.2 µM)
4 | O=C1COc2c(Cl)cccc2N1C1CCCCC1 | 64 (≈ 241 µM) | 32 (≈ 120 µM) | Active | 32 (≈ 120 µM) | 128 (≈ 482 µM) | 256 (≈ 963 µM) | 32 (≈ 120 µM) | Active | Active | Active | Active | Active | Active | 16 (≈ 60.2 µM)
5 | CC1(C)S[C@@H]2[C@H](NC(=O)[C@H](N)c3ccccc3)C(=O)N2[C@H]1C(=O)O [AMPICILLIN] | 2 (≈ 5.72 µM) | 1 (≈ 2.86 µM) | Active | 16 (≈ 45.8 µM) | – | – | 16 (≈ 45.8 µM) | Active | Active | Active | Active | Active | Active | 128 (≈ 366 µM)
6 | O=C1COc2cc(Br)ccc2N1Cc1ccccc1 | 32 (≈ 101 µM) | 32 (≈ 101 µM) | Active | 32 (≈ 101 µM) | 128 (≈ 402 µM) | 128 (≈ 402 µM) | 32 (≈ 101 µM) | Active | Active | Active | Active | Active | Active | 16 (≈ 50.3 µM)
7 | Clc1ccccc1C(c1ccccc1)(c1ccccc1)n1ccnc1 [CLOTRIMAZOLE] | 512 (≈ 1480 µM) | 512 (≈ 1480 µM) | Active | 512 (≈ 1480 µM) | 2 (≈ 5.8 µM) | 2 (≈ 5.8 µM) | 512 (≈ 1480 µM) | Active | Active | Active | Active | Active | Active | 512 (≈ 1480 µM)
8 | CN[C@@H]1[C@H](O[C@H]2[C@H](O[C@H]3[C@H](O)[C@@H](O)[C@H](N=C(N)N)[C@@H](O)[C@@H]3N=C(N)N)O[C@@H](C)[C@]2(O)C=O)O[C@@H](CO)[C@H](O)[C@H]1O [STREPTOMYCIN] | 2 (≈ 3.44 µM) | 32 (≈ 55 µM) | Active | 4 (≈ 6.88 µM) | – | – | 4 (≈ 6.88 µM) | Active | Active | Active | Active | Active | Active | 2 (≈ 3.44 µM)
9 | O=C1COc2cc(Br)ccc2N1CC1CCCO1 (stereo not drawn) | 32 (≈ 103 µM) | 32 (≈ 103 µM) | Active | 32 (≈ 103 µM) | 128 (≈ 410 µM) | – | 32 (≈ 103 µM) | Active | Active | Active | Active | Active | Active | 64 (≈ 205 µM)
10 | O=C1COc2cc(Cl)ccc2N1C1CCCCC1 | 64 (≈ 241 µM) | 64 (≈ 241 µM) | Active | 64 (≈ 241 µM) | 256 (≈ 963 µM) | 128 (≈ 482 µM) | 32 (≈ 120 µM) | Active | Active | Active | Active | Active | Active | 32 (≈ 120 µM)
11 | O=C1COc2cc(F)ccc2N1CC1CCCO1 (stereo not drawn) | 32 (≈ 127 µM) | 32 (≈ 127 µM) | Active | 16 (≈ 63.7 µM) | 256 (≈ 1020 µM) | – | 32 (≈ 127 µM) | Active | Active | Active | Active | Active | Active | 128 (≈ 509 µM)
12 | O=C1COc2ccc(Cl)cc2N1Cc1ccccc1 | 64 (≈ 234 µM) | 32 (≈ 117 µM) | Active | 32 (≈ 117 µM) | 64 (≈ 234 µM) | 32 (≈ 117 µM) | 128 (≈ 468 µM) | Active | Active | Active | Active | Active | Active | 128 (≈ 468 µM)
13 | O=C1COc2cc(F)ccc2N1C1CCCCC1 | 16 (≈ 64.2 µM) | 32 (≈ 128 µM) | Active | 16 (≈ 64.2 µM) | 256 (≈ 1030 µM) | 64 (≈ 257 µM) | 16 (≈ 64.2 µM) | Active | Active | Active | Active | Active | Active | 16 (≈ 64.2 µM)
14 | CCCCCCN1C(=O)COc2cc(F)ccc21 | 32 (≈ 127 µM) | 32 (≈ 127 µM) | Active | 16 (≈ 63.7 µM) | 128 (≈ 509 µM) | 128 (≈ 509 µM) | 16 (≈ 63.7 µM) | Active | Active | Active | Active | Active | Active | 128 (≈ 509 µM)
15 | O=C1COc2ccc(Cl)cc2N1C1CCCCC1 | 128 (≈ 482 µM) | 32 (≈ 120 µM) | Active | 16 (≈ 60.2 µM) | 32 (≈ 120 µM) | 32 (≈ 120 µM) | 128 (≈ 482 µM) | Active | Active | Active | Active | Active | Active | 64 (≈ 241 µM)
16 | O=C1COc2cc(Cl)ccc2N1CC1CCCO1 (stereo not drawn) | 32 (≈ 120 µM) | 32 (≈ 120 µM) | Active | 32 (≈ 120 µM) | 128 (≈ 478 µM) | 256 (≈ 956 µM) | 32 (≈ 120 µM) | Active | Active | Active | Active | Active | Active | 64 (≈ 239 µM)
17 | CC(C)(O/N=C(\C(=O)N[C@@H]1C(=O)N2C(C(=O)[O-])=C(C[n+]3ccccc3)CS[C@H]12)c1csc(N)n1)C(=O)O [CEFTAZIDIME] | 4 (≈ 7.32 µM) | 2 (≈ 3.66 µM) | Active | 4 (≈ 7.32 µM) | – | – | 4 (≈ 7.32 µM) | Active | Active | Active | Active | Active | Active | 128 (≈ 234 µM)
18 | CCCCCCN1C(=O)COc2cc(Cl)ccc21 | 32 (≈ 120 µM) | 32 (≈ 120 µM) | Active | 16 (≈ 59.8 µM) | 512 (≈ 1910 µM) | – | 32 (≈ 120 µM) | Active | Active | Active | Active | Active | Active | 32 (≈ 120 µM)
19 | CCCCCCN1C(=O)COc2cc(Br)ccc21 | 32 (≈ 102 µM) | 32 (≈ 102 µM) | Active | 16 (≈ 51.2 µM) | 128 (≈ 410 µM) | – | 32 (≈ 102 µM) | Active | Active | Active | Active | Active | Active | 32 (≈ 102 µM)
20 | O=C1COc2cc(Cl)ccc2N1CCc1ccccc1 | 64 (≈ 222 µM) | 64 (≈ 222 µM) | Active | 16 (≈ 55.6 µM) | 128 (≈ 445 µM) | – | 32 (≈ 111 µM) | Active | Active | Active | Active | Active | Active | 16 (≈ 55.6 µM)
